The record followed here is patent US8653022B2, “Use of ghrelin splice variant for treating hypercholesterolemia and/or high cholesterol and/or high cholesterol complication and/or lipemia and/or lipemia complication and/or coronary heart disease and/or weight management and/or diabetes and/or hyperglycemia” (priority 2006, dated 2014).

A short description of data set [1]: Plasma glucose level after 7 day treatment in 129Sv mice. In kind it is in vivo. The following applies: 129 male mice, 7.2 mg/kg peptide, end of study. The source says:
FIG. 3A is a bar graph showing percentage of plasma glucose reduction after 7 day treatment with acylated ghrelin splice variant peptides (acylated SEQ ID NO:2, SEQ ID NO:3 and SEQ ID NO:4) or ghrelin in 129Sv mice. The percent reduction is 3.2%; 2% and 4.8% respectively while treatment with ghrelin increased plasma glucose level by 1.3%.
FIG. 3B is a bar graph showing plasma glucose levels after 7 day treatment with acylated ghrelin splice variant peptides (acylated SEQ ID NO:2, SEQ ID NO:3 and SEQ ID NO:4) or ghrelin. 129 male mice were treated for seven days with 7.2 mg/kg peptide. Plasma glucose levels were measured at the end of the study.

A short description of data set [2]: Serum cholesterol and lipid levels (cholesterol, triglycerides, LDL, HDL) after subcutaneous administration in 129Sv mice. In kind it is in vivo. Particulars: 129Sv male mice, subcutaneous once daily, n=10 per group; for Reduced levels of cholesterol (serum cholesterol concentration): compared to vehicle-administered controls. The source says:
FIG. 1A is a bar graph showing serum cholesterol concentration after subcutaneous administration of acylated ghrelin splice variant (acylated SEQ ID NO:2) or un-acylated ghrelin splice variant (SEQ ID NO:2) compared to SEQ ID NO:3 and vehicle-administered controls in 129Sv mice. Reduced levels of cholesterol in the acylated ghrelin splice variant (acylated SEQ ID NO:2) and un-acylated ghrelin splice variant (SEQ ID NO:2) treated groups were observed (5% & 6%, respectively).
(§1) Acylated ghrelin splice variant (20 μg; 29 amino acids in length (SEQ ID NO:2)) or the Vehicle (1.6% mannitol) was administered once daily for 14 successive days, via the subcutaneous (SC) route, to groups comprising n=10 129Sv male mice. No mortality occurred in any of the animals throughout the entire study period. […] All animals were subjected to terminal bleeding, under CO2 anesthesia, immediately prior to euthanasia. Terminal blood collection was performed serially as per animal number, and not as per group. • Hematology: Blood samples (at least 100 μl) were collected into pre-labeled EDTA coated tubes. The tubes were pre-labeled and contain the following information:
Study number, group number, animal number and date. The samples were kept until delivery and analysis at 2-8 ° C. Hematology parameters that were tested using Sysmex KX-21™are: WBC, RBC, HGB, HCT, MCV, MCH, MCHC, Platelets. Differential count was preformed manually. • Biochemistry: Blood for biochemistry analysis was collected into non-coated pre-labeled tubes. The tubes were pre-labeled and contained the following information: Study number, group number, animal number and date. Following clotting, the blood from each animal was centrifuged, and the serum was collected into two pre-labeled tubes and submitted for analysis as follows: Serum, 250 μl, was kept at 2-8° C. until analysis. The samples were subjected to the following listed tests using Hitachi 917 system: Creatinine, Total bilirubin, Glucose, Triglycerides, Cholesterol, HDL, LDL, Total protein, Globulin, Albumin, Urea, Potassium, Phosphorus, Calcium, Sodium, Chloride, sGOT, SGPT, ALP. • Urinalysis: Urine was collected into pre-labeled tubes (as above) from all animals (where possible) prior to and/or after euthanasia. For all surviving animals, urine collection was performed serially as per animal number, and not as per group. An attempt was made to attain the maximal amount as possible to perform the tests listed below. Urinalysis is performed using a commercial test stick (Bayer, Multistix® 10SG) applied to urine sample and evaluating the following parameters: glucose, ketone, pH value, leukocytes, blood, density, nitrite, bilirubin, urobilinogen and protein. • Necropsy Procedures and Macroscopic Examination: All animals were subjected to a fully detailed necropsy. For all surviving animals, necropsy was performed serially as per animal number, and not as per group, immediately following the scheduled terminal bleeding. At necropsy, a thorough examination is made and any abnormality or gross pathological changes in tissues and/or organs are observed and recorded. • Organ/Tissue Collection: The organs and tissues listed (Brain, Liver, Kidney, Stomach, Pancreas, Lungs, Spleen, Heart, Epididymal WAT, Retroperitoneal WAT, Interscapular BAT) were excised and weighed wet as soon as possible after excision and removal of the attached fat and other connective tissues. All organs from one animal were collected into one container, pre-labeled with the following information: Study number, group number, animal number and date. • Results: Reduced levels of cholesterol in the acylated ghrelin splice variant and un-acylated ghrelin splice variant treated groups were observed (5% & 6%, respectively; See FIG. 1A). Reduced levels of HDL in the acylated ghrelin splice variant and un-acylated ghrelin splice variant treated groups (5% & 6%, respectively; see FIG. 1B).

Data set [3] is described as follows: Cumulative body weight gain after once-daily subcutaneous treatment in 129Sv mice. The class given is in vivo. Particulars: male wild-type 129Sv mice, once daily for seven days, 72 mg/kg subcutaneously, n=8 per group. How it is done:
FIG. 2 is a line graph showing cumulative body weight gain of un-acylated ghrelin splice variant-treated (SEQ ID NO:2) 129Sv mice compared to vehicle-treated controls. Un-acylated ghrelin splice variant reduces body weight gain in male wild-type mice (n=8 per group). In mice treated once daily for seven days with un-acylated ghrelin splice variant (72 mg/kg, subcutaneously), cumulative weight gain of the SEQ ID NO:2 group was 25% times less than the vehicle-injected control animals.

The nature of data set [4]: Mortality and clinical signs during subcutaneous administration study. The class given is in vivo, 129Sv mice. The following applies: 20 μg once daily for 14 successive days, 129Sv male mice, n=10. How it is done: as §1, with “information: […]” for “information:”

Ends that are not written are not given here. * marks the point of attachment. Octanoyl = CCCCCCCC(=O)*

For the substance “GSS (CO-C7H15) FLSPEHQRVQVRPPHKAPH (GSS(Octanoyl)FLSPEHQRVQVRPPHKAPH; listed as Homo sapiens) [SEQ ID NO:3, 22 amino acid human ghrelin splice variant, acylated]”, in data set [1], the “Percentage of plasma glucose reduction” value worked out at 2%. Also, the “Increased levels of triglycerides” value in data set [2] (compared to vehicle) was 15%.
For “GSSFLSPEHQRVQVRPPHKAPHVV (also: acylated (site not given here); listed as Homo sapiens) [SEQ ID NO:4, acylated 24 amino acid human ghrelin splice variant]”, the “Percentage of plasma glucose reduction” value in data set [1] came to 4.8%.
Consider “GSSFLSPEHQRVQVRPPHKAPHVVPALPL (listed as Homo sapiens) [un-acylated ghrelin splice variant, 29 amino acid human ghrelin splice variant, un-acylated]”, for which, in data set [2] (compared to vehicle), the “Level of triglycerides (in words)” value was “remained unchanged” and the “Reduced levels of HDL” value came to 6%. Further, the “Reduced levels of cholesterol (serum cholesterol concentration)” value in data set [2] amounted to 6%. In data set [3], the “Cumulative weight gain less than the vehicle-injected control animals” value came to 25%.
As for “GSSFLSPEHQRVQVRPPHKAPHVVPALPL (not fully specified; listed as Homo sapiens) [acylated SEQ ID NO:2, 29 amino acid human ghrelin splice variant, acylated]”, in data set [1], the “Percentage of plasma glucose reduction” value turned out to be 3.2%. Moreover, in data set [2] (compared to vehicle), the “Increased levels of triglycerides” value was 9% and the “LDL levels (in words)” value is given as “remained unchanged”. In addition, in data set [2] (compared to vehicle, listed as acylated ghrelin splice variant), the “Reduced levels of HDL” value is listed as 5%. Moreover, in data set [2] (listed as acylated ghrelin splice variant), the “Reduced levels of cholesterol (serum cholesterol concentration)” value is listed as 5%. Moreover, in data set [4], the Clinical signs result is listed as “No clinical signs” and the Mortality entry is reported as “No mortality”.
Turning to “ghrelin: polypeptide of GenBank NP_057446; mature 28 amino acid peptide bearing n-octanoyl on the third serine (GSS(Octanoyl)FLSPEHQRVQQRKESKKPPAKLQPR; UniProt Q9UBU3 24-51, looked up) [reference compound]”, in data set [1], the “Increase of plasma glucose level” value turned out to be 1.3%.
